The text below walks through data of ChEMBL document CHEMBL5303573, “Mapping human microbiome drug metabolism by gut bacteria and their genes” (Nature, 2019).

The conditions of data set [1]: bacteroides stercoris, 12 h, 2 µM.
Description: The drug is tested on Bacteroides stercoris strain: ATCC43183 for biotransformation. The drug concentrations were measured before and after a 12-h incubation by liquid-chromatography-coupled mass spectrometry (LC–MS)
A short description of data set [2]: The drug is tested on Bacteroides ovatus strain: ATCC8483 for biotransformation. The drug concentrations were measured before and after a 12-h incubation by liquid-chromatography-coupled mass spectrometry (LC–MS). Particulars: 2 µM.
Data set [3] is described as follows: The drug is tested on Parabacteroides merdae strain: ATCC43184 for biotransformation. The drug concentrations were measured before and after a 12-h incubation by liquid-chromatography-coupled mass spectrometry (LC–MS). Particulars: 2 µM.
The nature of data set [4]: The drug is tested on Collinsella intestinalis strain: DSM13280 for biotransformation. The drug concentrations were measured before and after a 12-h incubation by liquid-chromatography-coupled mass spectrometry (LC–MS). The settings on record: 2 µM.
Data set [5] is described as follows: The drug is tested on Eubacterium hallii strain: DSM3353 for biotransformation. The drug concentrations were measured before and after a 12-h incubation by liquid-chromatography-coupled mass spectrometry (LC–MS). The settings on record: anaerobutyricum hallii, 2 µM.
Data set [6] is described as follows: The drug is tested on Coprococcus comes strain: ATCC27758 for biotransformation. The drug concentrations were measured before and after a 12-h incubation by liquid-chromatography-coupled mass spectrometry (LC–MS). In kind it is ADME. Set-up: dose 2 uM, timepoint 0 vs 12 hours. The settings on record: 2 µM.
The nature of data set [7]: The drug is tested on Anaerococcus hydrogenalis strain: DSM7454 for biotransformation. The drug concentrations were measured before and after a 12-h incubation by liquid-chromatography-coupled mass spectrometry (LC–MS). Particulars: 2 µM.
For data set [8] the following is noted: bacteroides fragilis, 12 h, 2 µM.
Description: The drug is tested on Bacteroides fragilis strain: DS-208 for biotransformation. The drug concentrations were measured before and after a 12-h incubation by liquid-chromatography-coupled mass spectrometry (LC–MS)
The conditions of data set [9]: anaerostipes sp., 12 h, 2 µM.
Description: The drug is tested on Anaerostipes sp. strain: fecal isolate for biotransformation. The drug concentrations were measured before and after a 12-h incubation by liquid-chromatography-coupled mass spectrometry (LC–MS)
The conditions of data set [10]: bifidobacterium adolescentis, 12 h, 2 µM.
Description: The drug is tested on Bifidobacterium adolescentis strain: ATCC 15703 for biotransformation. The drug concentrations were measured before and after a 12-h incubation by liquid-chromatography-coupled mass spectrometry (LC–MS)
For data set [11] the following is noted: bacteroides fragilis, 12 h, 2 µM. The source holds these as a separate data set.
Description: The drug is tested on Bacteroides fragilis strain: NCTC 9343 for biotransformation. The drug concentrations were measured before and after a 12-h incubation by liquid-chromatography-coupled mass spectrometry (LC–MS)
A short description of data set [12]: The drug is tested on Providencia stuartii strain: ATCC25827 for biotransformation. The drug concentrations were measured before and after a 12-h incubation by liquid-chromatography-coupled mass spectrometry (LC–MS). Particulars: 2 µM.
Data set [13] can be described thus: The drug is tested on Bacteroides fragilis strain: ATCC43859 for biotransformation. The drug concentrations were measured before and after a 12-h incubation by liquid-chromatography-coupled mass spectrometry (LC–MS). The settings on record: 2 µM.
Data set [14] in a line: The drug is tested on Bacteroides vulgatus strain: ATCC8482 for biotransformation. The drug concentrations were measured before and after a 12-h incubation by liquid-chromatography-coupled mass spectrometry (LC–MS). The settings on record: phocaeicola vulgatus, 2 µM.
For data set [15] the following is noted: bacteroides fragilis, 12 h, 2 µM. The source holds these as a separate data set.
Description: The drug is tested on Bacteroides fragilis strain: 3397 (T10) for biotransformation. The drug concentrations were measured before and after a 12-h incubation by liquid-chromatography-coupled mass spectrometry (LC–MS)
The nature of data set [16]: The drug is tested on Providencia rettgeri strain: DSM1131 for biotransformation. The drug concentrations were measured before and after a 12-h incubation by liquid-chromatography-coupled mass spectrometry (LC–MS). Type of data set: ADME. Details: dose 2 uM, timepoint 0 vs 12 hours. The settings on record: 2 µM.
A short description of data set [17]: The drug is tested on Bacteroides dorei strain: DSM17855 for biotransformation. The drug concentrations were measured before and after a 12-h incubation by liquid-chromatography-coupled mass spectrometry (LC–MS). Particulars: phocaeicola dorei, 2 µM.
The nature of data set [18]: The drug is tested on Bacteroides coprophilus strain: DSM18228 for biotransformation. The drug concentrations were measured before and after a 12-h incubation by liquid-chromatography-coupled mass spectrometry (LC–MS). Particulars: 2 µM.
A short description of data set [19]: The drug is tested on Blautia hansenii strain: DSM20583 for biotransformation. The drug concentrations were measured before and after a 12-h incubation by liquid-chromatography-coupled mass spectrometry (LC–MS). Particulars: 2 µM.

SMILES strings stand for the structures.

Turning to `O=C(Nc1ccccc1)OCC(CN1CCCCC1)OC(=O)Nc1ccccc1` (stereo not drawn) [DIPERODON], the “Bacterial Biotransformation” value in [1], in data set [2], in [3], in [4], in data set [5] and in data set [6] was “Compound NOT metabolized” in each case. Besides, the “Bacterial Biotransformation” value in data set [7], in [8], in data set [9], in data set [10], in data set [11] and in [12] was “Compound NOT metabolized” in each case. For the same compound, the “Bacterial Biotransformation” value in data set [13], in data set [14], in data set [15], in data set [16], in data set [17] and in data set [18] was “Compound NOT metabolized” throughout.

On to `O=C1NCC2(CCN(CCc3ccccc3)CC2)O1` [FENSPIRIDE], for which the “Bacterial Biotransformation” value in [1] is recorded as “Compound metabolized”; in data set [2], “Compound metabolized”; in [4], “Compound NOT metabolized”; in data set [5], “Compound NOT metabolized”; in [6], “Compound NOT metabolized”; in data set [7], “Compound NOT metabolized”. Moreover, the “Bacterial Biotransformation” value in [8] is listed as “Compound metabolized”; in data set [9], “Compound NOT metabolized”; in data set [10], “Compound NOT metabolized”; in data set [11] it was “Compound metabolized”; in data set [12], “Compound NOT metabolized”; in [13], “Compound metabolized”. Besides, the “Bacterial Biotransformation” value in data set [14] is “Compound NOT metabolized”; in data set [15] it was “Compound metabolized”; in [16], “Compound NOT metabolized”; in data set [17], “Compound metabolized”; in [18] it was “Compound metabolized”.

In the case of `OC(Cn1cncn1)(Cn1cncn1)c1ccc(F)cc1F` [FLUCONAZOLE], the “Bacterial Biotransformation” value in data set [1] was “Compound metabolized”; in data set [2], “Compound metabolized”; in [3] it was “Compound NOT metabolized”; in data set [4], “Compound NOT metabolized”; in data set [19] it was “Compound metabolized”; in data set [7] it was “Compound NOT metabolized”. For the same compound, the “Bacterial Biotransformation” value is listed as “Compound NOT metabolized” in [9]; “Compound NOT metabolized” in data set [10]; “Compound metabolized” in data set [11]; “Compound metabolized” in data set [15]; “Compound metabolized” in data set [17]; “Compound NOT metabolized” in data set [18].

For `Nc1nnc(-c2cccc(Cl)c2Cl)c(N)n1` [LAMOTRIGINE], the “Bacterial Biotransformation” value in [1], in data set [2], in [4], in [5], in data set [6] and in data set [7] was “Compound NOT metabolized” in each case. The “Bacterial Biotransformation” value in data set [8], in data set [9], in [10], in data set [12], in data set [13] and in data set [15] was “Compound NOT metabolized” in each case. Moreover, the “Bacterial Biotransformation” value in [16], in data set [17] and in data set [18] was “Compound NOT metabolized” in each case.

`C#C[C@]1(O)CC[C@H]2[C@@H]3CCC4=CC(=O)CC[C@@H]4[C@H]3CC[C@@]21CC` [LEVONORGESTREL]: the “Bacterial Biotransformation” value is “Compound metabolized” in data set [1]; “Compound NOT metabolized” in data set [2]; “Compound metabolized” in [3]; “Compound NOT metabolized” in [4]; “Compound NOT metabolized” in data set [5]; “Compound NOT metabolized” in [6]. In addition, the “Bacterial Biotransformation” value in [7] is recorded as “Compound NOT metabolized”; in [8] it was “Compound metabolized”; in data set [9], “Compound NOT metabolized”; in [10], “Compound NOT metabolized”; in data set [11], “Compound metabolized”; in data set [12], “Compound NOT metabolized”. In addition, the “Bacterial Biotransformation” value in data set [13] is “Compound metabolized”; in data set [14], “Compound metabolized”; in data set [15], “Compound metabolized”; in data set [16], “Compound NOT metabolized”; in [17] it was “Compound metabolized”; in data set [18] it was “Compound NOT metabolized”.

On to `COCCc1ccc(OCC(O)CNC(C)C)cc1.COCCc1ccc(OCC(O)CNC(C)C)cc1.O=C(O)C(O)C(O)C(=O)O` (stereo not drawn) [METOPROLOL TARTRATE], for which the “Bacterial Biotransformation” value in data set [2], in data set [3], in data set [4], in [5], in data set [6] and in data set [7] was “Compound NOT metabolized” in each case. Further, the “Bacterial Biotransformation” value in [8] is reported as “Compound NOT metabolized”; in [9], “Compound NOT metabolized”; in [10] it was “Compound NOT metabolized”; in data set [11], “Compound NOT metabolized”; in data set [12], “Compound NOT metabolized”; in [13], “Compound metabolized”. For the same compound, the “Bacterial Biotransformation” value in data set [14], in [15], in data set [16], in data set [17] and in data set [18] was “Compound NOT metabolized” each time.

`CN1CCN2c3ccccc3Cc3ccccc3C2C1` (stereo not drawn) [MIANSERIN]: the “Bacterial Biotransformation” value in data set [1], in data set [2], in data set [3], in data set [4], in data set [19] and in data set [5] was “Compound NOT metabolized” in each case. Also, the “Bacterial Biotransformation” value in data set [6], in [7], in [8], in data set [9], in data set [10] and in data set [11] was “Compound NOT metabolized” each time. Further, the “Bacterial Biotransformation” value in data set [12], in data set [15], in data set [17] and in data set [18] was “Compound NOT metabolized” throughout.

Consider `CN(C)C(=O)Oc1cccc([N+](C)(C)C)c1.[Br-]` [NEOSTIGMINE BROMIDE], for which the “Bacterial Biotransformation” value in data set [1] was “Compound NOT metabolized”; in data set [2] it was “Compound metabolized”; in data set [3] it was “Compound metabolized”; in data set [4] it was “Compound NOT metabolized”; in [6], “Compound NOT metabolized”; in data set [7] it was “Compound NOT metabolized”. In addition, the “Bacterial Biotransformation” value in data set [8] is “Compound metabolized”; in data set [9], “Compound NOT metabolized”; in data set [10], “Compound NOT metabolized”; in data set [11], “Compound metabolized”; in data set [12] it was “Compound NOT metabolized”; in data set [15], “Compound metabolized”. Further, the entries for the “Bacterial Biotransformation” value in data set [16], in data set [17] and in [18] were “Compound NOT metabolized”, “Compound metabolized” and “Compound metabolized”, respectively.
